Where a SMILES comes first, the peptide text is derived from it. Bridges are numbered along the chain shown (N, C = ends). Where no end group is shown, it is not given here. [ ]: non-standard residue; d: D form.
Legend:
[1] = system: DU145 cells; assay: CCK-8 cell proliferation, DU145 cells; format: cell-based, human; conditions: DU145, concentrations of 6.25 and 12.5 μM
Protocol: (§1) The cell lines, including DU145 (human prostate cancer cells, American Type Culture Collection/ATCC, Manassas, VA), LNCaP (human prostate cancer cells, ATCC, Manassas, VA), KYSE30 (human esophageal squamous cell carcinoma cells, ATCC, Manassas, VA), KYSE510 (human esophageal squamous cell carcinoma cells, ATCC, US), L02 (human normal liver cells, ATCC, Manassas, VA), and MCF‐7 (human breast cancer cells, ATCC, Manassas, VA) were cultured in DMEM medium (Thermo Gibco, Waltham, MA) with 10% FBS (Biological Industries, Israel). The SGC7901 (human gastric cancer cells, ATCC, Manassas, VA) cells were maintained in RPMI‐1640 medium (Thermo Gibco, Waltham, MA) with 10% FBS. All these cell lines were cultured at 37°C in a 5% CO2 cell incubator (Bio‐Rad, Hercules, CA). Subculture of these cell lines was employed with 0.25% trypsin (Thermo Gibco, Waltham, MA).
The cells were seeded at a density of 30 000 cells/mL based on cell counting performed with a cell counting plate. […]
(§2) Cell proliferation was evaluated using the Enhanced CCK‐8 cell proliferation and toxicity test kit (Meilunbio, China) according to the product specifications. Finally, the OD450 nm and OD630 nm were measured with an iMark dual wavelength microplate reader (Bio‐Rad, Hercules, CA), and the ratio of OD450 nm/OD630 nm was calculated.

[2] = system: DU145 cells; assay: Colony formation of DU145 cells; format: cell-based, human; conditions: 12.5 μM
Protocol: Cell colony formation was also employed to evaluate the effect of P5 and DcP5. The DU145 cells were seeded in six‐well plates (500 cells/well). The cultural supernatant was removed at 48 hours posttreatment, followed by washing with PBS three times. The cells were then fixed with 4% paraformaldehyde and air dried. Crystal violet staining was performed using solution (Sangon, China) as per the instructions. Then, photographs were taken, and spot amounts were calculated with an Invitrogen Countess II FL (Thermo, Waltham, MA) cell counter.
(§3) In our study, peptide cyclization was achieved by adding two cysteine residues to each end of the peptides. Cysteine is a chiral molecule. The natural cysteine is L‐cysteine, and a report has shown that introduction of unnatural D‐cysteine can theoretically improve the stability of the cyclic peptide in vivo.[41], [42], [43] Therefore, we designed and synthesized two cyclic peptides, DcP5 and LcP5, with two L‐cysteines or D‐cysteines at each end, respectively. The amino acid polymers of DcP5 and LcP5 were synthesized via the same organic chemistry as the P5 peptide. The cysteine‐ending peptides were spontaneously cyclized at 37°C in PBS (pH = 9.0) for 12 hours. […] Then, the binding affinity of these two cyclic peptides to FGFR2 was measured by ITC as described in Section 2.1. […]

[3] = system: FGFR2 knockdown DU145 cells; assay: Growth inhibition in FGFR2-knockdown (shFGFR2) DU145 cells; format: cell-based, human; conditions: DU145, shFGFR2 knockdown vs wild type
Protocol: The cells were seeded at a density of 30 000 cells/mL based on cell counting performed with a cell counting plate. Different concentrations of the P5 peptide were added to the cultural medium, followed by a 24‐hour incubation at 37°C in a 5% CO2 cell incubator (Bio‐Rad, Hercules, CA). Five replicates were set up for each experimental group.
as §2
The shFGFR2 plasmid was purchased from Sigma (St Louis, MO) (TRCN0000218493). One microliter Lip3000 (Lipofectamine 3000, Invitrogen, Carlsbad, CA) was mixed with 100 ng plasmid in nonserum DMEM medium before being added into the cultural DU145 cells. The cells were incubated with the Lip3000/plasmid solution for 6 hours, followed by DMEM with 10% FBS incubation. The transfected cells were then ready for growth‐inhibition experiment and RNA extraction for qPCR.

[4] = system: DU145 xenograft; assay: DU145 xenograft in nude mice, tumor growth; format: in vivo, BALB/C‐nu/nu mice; conditions: intratumoral injection once a day for 7 days, evaluated to Day 14, P5 10-25 mg/kg, DcP5 10, 25, 50 mg/kg, P5-3 50 mg/kg
Protocol: The specific pathogen‐free (SPF) level experimental male nude mice were purchased from the Animal Center of Guangdong Province (China), and the strain was BALB/C‐nu/nu. The animal experiments were conducted by the Animal Experimental Center of Jinan University (China) according to the National Institutes of Health guide for the care and use of Laboratory animals. The treatment and experimental procedure met the requirements of animal ethics.
(§4) DU145 cells with a density above 90% were harvested in to a microtube. The cell concentration was adjusted to 1 × 10^7 cells/mL, and two million cells were injected under the right arm of each individual. After injection, the tumors grew to a size of approximately 200 mm^3 in the following days. […] Animal models were randomly selected and assigned to each experimental group, and compounds were administered by intratumoral injections. The dosing regimen was one injection a day for 7 days. The length and width of the tumor were measured using a Vernier caliper once a day, and the animal's weight was recorded once a day from the beginning of the experiment. On Day 14, blood samples of each animal were collected, the tumor tissue was separated and weighed, and internal organs were collected. The tumor volume was calculated according to the formula V = ab ^2/2 (a refers to the length of the tumor, and b refers to the width).

[5] = system: heart, liver, spleen, lung, and kidney; assay: H&E staining of major organs of tumor-bearing mice; format: in vivo, BALB/C‐nu/nu mice; conditions: tumor-bearing mice at functional doses, paraffin sections
Protocol: as §4
Briefly, the connective tissue around the parenchyma organ was removed and washed three times in PBS, and the tissues were fixed with 10% formalin solution for 24 hours, followed by gradient ethanol dehydration. The tissues were then subjected to paraffin embedding. Sections of 4 μm thickness were prepared for H&E staining. H&E staining was performed according to the standard protocol of the H&E staining kit (Solarbio, China).

[6] = Body weight of tumor-bearing mice; format: in vivo, BALB/C‐nu/nu mice; conditions: various dosing regimens; data not shown
Protocol: as §4

[7] = system: FGFR2 on DU145 cells; assay: Immunofluorescence assay (IFA) of biotin-labeled peptide binding to DU145 cells; format: cell-based, human
Protocol: The binding affinity was analyzed under fluorescent microscope. GFP‐labeled DU145 cells were cultured to a density of 50%, followed by 4% paraformaldehyde fixation. After treated with 0.2% Triton X‐100, the cells were then blocked with 5% BSA. The incubation was performed by different treatments and SA‐PE‐TRITC was used as a fluorescent indicator; briefly, the FGFR2 mAb group (Abcam [Cambridge, MA] followed by PE‐TRITC‐labeled goat antimouse IgG for color development), and the blank group (equal amounts of PBS followed by SA‐PE‐TRITC as a fluorescent indicator were added). After adding the biotin‐labeled P5 peptide, biotin‐labeled P5‐3 peptide or anti‐FGFR2 mAb, the cells were incubated at 4°C overnight. After washing five times with PBST, the TRITC‐labeled streptavidin regent or TRITC‐labeled secondary antibody was introduced for another incubation at 25°C for 30 minutes in dark. Finally, the DAPI staining reagent was employed to stain the nucleus for 10 minutes in dark, followed by washing five times with PBS. After the addition of ProLong Antifade mounting medium (Thermo, Waltham, MA), a confocal microscope (OLS4100, Japan) was used for observation.

[8] = Peptide concentration in peripheral blood after administration; format: in vivo, BALB/C‐nu/nu mice; conditions: 25 mg/kg, serum; for time before blood concentration dropped below half C max: mice, biotin quantitation kit, sampled 0.5-24 hours postadministration
Protocol: as §4, with “On Day 14, blood samples of each animal were collected, the tumor tissue was separated and weighed, and internal organs were collected.” left out
Serum in the blood was separated and used to perform biotin quantitation with a Biotin Quantitation assay kit (MyBioSource, San Diego, CA) to calculate the concentration of the biotin‐peptide complex in the blood sample. Serum samples from the blank group were used as background controls, and serum of the 25 mg/kg‐dose P5 group and 25 mg/kg‐dose DcP5 group was examined in this step.

[9] = system: phosphorylated FGFR2, AKT, and ERK1/2; assay: Western blot of phosphorylated FGFR2, AKT and ERK1/2 in xenograft tumors; format: in vivo, BALB/C‐nu/nu mice; conditions: tumor tissue of xenograft mice
Protocol: DU145 cells with a density above 90% were harvested in to a microtube. The cell concentration was adjusted to 1 × 10^7 cells/mL, and two million cells were injected under the right arm of each individual. […] Animal models were randomly selected and assigned to each experimental group, and compounds were administered by intratumoral injections. The dosing regimen was one injection a day for 7 days. The length and width of the tumor were measured using a Vernier caliper once a day, and the animal's weight was recorded once a day from the beginning of the experiment. On Day 14, blood samples of each animal were collected, the tumor tissue was separated and weighed, and internal organs were collected. The tumor volume was calculated according to the formula V = ab ^2/2 (a refers to the length of the tumor, and b refers to the width).
Cell lysates were subjected to SDS‐PAGE for Western blotting. Briefly, cells were lysed with RIPA buffer (Thermo, Waltham, MA), followed by heat denaturation in 1X Laemmli SDS buffer (Sigma, St Louis, MO). For SDS‐PAGE 100 μg proteins were loaded to each lane. After electrophoresis, the proteins were transferred onto PVDF membranes, followed by blocking in 5% nonfat milk. […] The bands were quantified using Image Lab Software 6.0 (Bio‐Rad, Hercules, CA).

[10] = target: FGFR2 (Homo sapiens, UniProt P21802); assay: Isothermal titration calorimetry (ITC) binding to FGFR2 protein; conditions: in Figure 4A, read-out: KD, P5-FGFR2
Protocol: A set of peptide candidates was designed with manual inspection, synthesized with a chemical dehydration reaction, and verified with MS. To screen the candidates, an in vitro binding assay using isothermal titration calorimetry (ITC) was performed against the FGFR2 protein using AutoiTC200 (MicroCal, MA). After the positive candidate was confirmed by ITC, three analog peptides with different mutant amino acids were designed to verify the active site previously determined. The binding affinity of each mutant analog to FGFR2 was measured using ITC and compared with the positive candidate.
as §3

[11] = system: L02 normal liver cells; assay: Toxicity toward L02 normal liver cells; format: cell-based, human; conditions: in vitro
Protocol: as §1, §2

Chain of FGFR2 (P21802 22-821): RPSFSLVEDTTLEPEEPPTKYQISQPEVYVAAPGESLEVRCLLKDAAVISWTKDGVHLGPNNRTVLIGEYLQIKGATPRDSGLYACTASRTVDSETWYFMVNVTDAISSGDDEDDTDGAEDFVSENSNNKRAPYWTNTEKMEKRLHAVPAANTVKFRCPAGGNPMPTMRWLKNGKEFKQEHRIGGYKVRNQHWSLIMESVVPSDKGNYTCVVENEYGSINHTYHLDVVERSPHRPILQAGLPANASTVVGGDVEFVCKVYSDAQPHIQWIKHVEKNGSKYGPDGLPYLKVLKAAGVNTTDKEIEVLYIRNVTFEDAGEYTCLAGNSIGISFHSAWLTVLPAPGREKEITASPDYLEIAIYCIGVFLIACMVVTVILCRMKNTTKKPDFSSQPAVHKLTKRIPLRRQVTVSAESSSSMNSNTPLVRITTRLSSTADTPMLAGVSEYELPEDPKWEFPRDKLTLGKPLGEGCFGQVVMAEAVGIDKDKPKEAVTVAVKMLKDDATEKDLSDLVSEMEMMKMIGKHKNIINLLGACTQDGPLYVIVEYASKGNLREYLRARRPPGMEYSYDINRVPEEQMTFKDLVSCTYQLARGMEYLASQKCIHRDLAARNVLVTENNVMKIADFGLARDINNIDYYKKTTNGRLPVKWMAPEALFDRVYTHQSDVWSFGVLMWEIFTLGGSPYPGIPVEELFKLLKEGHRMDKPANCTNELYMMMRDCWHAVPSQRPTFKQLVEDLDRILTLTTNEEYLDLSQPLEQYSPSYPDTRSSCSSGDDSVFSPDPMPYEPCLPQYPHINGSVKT

| Compound | growth-inhibition rate relative to P5 [1] | colony number versus control group ([2]; 500 cells/well, crystal violet) | less colonies than cells exposed to P5 ([2]; P < .05) | growth inhibitory effect in FGFR2 knockdown cells compared to wild type cells [3] | tumor growth in xenograft [4] | toxicity toward heart, liver, spleen, lung, and kidney (H&E morphology) [5] | body weight versus other groups incl. blank [6] | fluorescent intensity of treated cells relative to P5 ([7]; IFA) | binding to FGFR2 on cells (IFA) ([7]; biotin-labeled peptide) | time before blood concentration dropped below half C max [8] | concentration in peripheral blood relative to P5 ([8]; 0.5 hour after administration, biotin quantitation kit (biotin-peptide)) | phosphorylation of FGFR2, AKT, and ERK1/2 [9] | Kd [10] | toxicity toward normal cells [11] |
| --- | --- | --- | --- | --- | --- | --- | --- | --- | --- | --- | --- | --- | --- | --- |
| CC(C)C[C@@H]1NC(=O)[C@H](N)CSSC[C@H](C(=O)O)NC(=O)[C@H](CCCNC(=N)N)NC(=O)[C@H](CCC(=O)O)NC(=O)[C@H](CCC(=O)O)NC(=O)[C@H](C)NC(=O)[C@H](CCC(N)=O)NC(=O)[C@H](CC(C)C)NC(=O)[C@H](CCC(N)=O)NC1=O [DcP5] (H-[dC]LQLQAEER[dC]-OH; disulfide 1-10; N-terminus and C-terminus assumed) | stronger inhibition than P5 | significantly less than the control group | 20% | significantly decreased | significantly decreased the tumor size in dose‐dependent manner | remained normal | little difference in body weight | significantly stronger | bind to FGFR2 | 7 h | twice | reduced | – | – |
| LQLQAEER [P5] | – | – | – | – | – | negligible toxicity | little difference in body weight | – | – | 5 h | – | – | 0.49 µM | negligible toxicity |

— PMC8491194, “A cyclic peptide retards the proliferation of DU145 prostate cancer cells in vitro and in vivo through inhibition of FGFR2” (MedComm, 2020)
